Measured values reported in ChEMBL document CHEMBL1140563, “Redefining the structure-activity relationships of 2,6-methano-3-benzazocines. 5. Opioid receptor binding properties of N-((4'-phenyl)-phenethyl) analogues of 8-CAC” (Bioorg Med Chem Lett, 2007).
Activity calls are given as the source filed them. No cut-off for these calls is given here.

Columns and labels:
Mu-type opioid receptor [1] = biological target: T1, Mu-type opioid receptor (Homo sapiens, UniProt P35372); test: Displacement of [3H]DAMGO from mu opioid receptor expressed in CHO cells; type: cell-based
[2] = biological target: T2, Delta-type opioid receptor (Homo sapiens, UniProt P41143); test: Antagonist activity at human delta opioid receptor expressed in CHO cell membrane assessed as inhibition of SNC80 induced [35S]GTPgammaS binding; type: functional, cell membranes
Mu-type opioid receptor [3] = biological target: T1, Mu-type opioid receptor; test: Agonist activity at human mu opioid receptor expressed in CHO cell membrane by [35S]GTPgammaS binding assay; type: functional, cell membranes
[4] = biological target: T3, Kappa-type opioid receptor (Homo sapiens, UniProt P41145); test: Antagonist activity at human kappa opioid receptor expressed in CHO cell membrane assessed as inhibition of U50,488 induced [35S]GTPgammaS binding; type: functional, cell membranes
[5] = biological target: T2, Delta-type opioid receptor; test: Displacement of [3H]naltrindole from delta opioid receptor expressed in CHO cells; type: cell-based
[6] = biological target: T3, Kappa-type opioid receptor; test: biochemical; type: cell-based, CHO
Description: Displacement of [3H]U-69593 from kappa opioid receptor expressed in CHO cells

[7] = biological target: T2, Delta-type opioid receptor; test: Agonist activity at human delta opioid receptor expressed in CHO cell membrane by [35S]GTP-gamma-S binding assay; type: functional, cell membranes
Mu-type opioid receptor [8] = biological target: T1, Mu-type opioid receptor; test: Antagonist activity at human mu opioid receptor expressed in CHO cell membrane assessed as inhibition of DAMGO induced [35S]GTP-gamma-S binding; type: functional, cell membranes
[9] = biological target: T3, Kappa-type opioid receptor; test: Agonist activity at human kappa opioid receptor expressed in CHO cell membrane by [35S]GTP-gamma-S binding assay; type: functional, cell membranes
Mu-type opioid receptor [10] = biological target: T1, Mu-type opioid receptor; test: Antagonist activity at human mu opioid receptor expressed in CHO cell membrane assessed as inhibition of DAMGO induced [35S]GTP-gamma-S binding at 10 uM; type: functional, cell membranes

T3 sequence (P41145 whole entry): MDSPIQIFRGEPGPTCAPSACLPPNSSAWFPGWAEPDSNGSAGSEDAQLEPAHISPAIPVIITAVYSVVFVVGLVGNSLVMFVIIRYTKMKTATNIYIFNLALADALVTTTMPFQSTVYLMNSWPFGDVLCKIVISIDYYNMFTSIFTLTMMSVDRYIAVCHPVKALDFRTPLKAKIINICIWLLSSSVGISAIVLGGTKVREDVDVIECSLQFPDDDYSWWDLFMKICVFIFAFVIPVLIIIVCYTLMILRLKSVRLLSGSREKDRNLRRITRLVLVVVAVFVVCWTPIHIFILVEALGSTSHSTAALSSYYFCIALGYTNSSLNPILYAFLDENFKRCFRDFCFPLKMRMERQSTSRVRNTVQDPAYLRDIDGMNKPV
T2 sequence (P41143 whole entry): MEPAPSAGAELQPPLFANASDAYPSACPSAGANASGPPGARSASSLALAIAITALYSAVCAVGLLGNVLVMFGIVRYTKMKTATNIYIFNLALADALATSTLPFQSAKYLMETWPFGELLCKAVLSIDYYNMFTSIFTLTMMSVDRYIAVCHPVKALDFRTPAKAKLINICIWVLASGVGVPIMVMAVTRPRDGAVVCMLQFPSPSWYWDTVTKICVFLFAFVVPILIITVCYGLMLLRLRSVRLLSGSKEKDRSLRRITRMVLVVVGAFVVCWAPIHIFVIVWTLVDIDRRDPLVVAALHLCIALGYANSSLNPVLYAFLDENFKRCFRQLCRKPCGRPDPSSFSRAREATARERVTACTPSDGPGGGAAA
T1 sequence (P35372 whole entry): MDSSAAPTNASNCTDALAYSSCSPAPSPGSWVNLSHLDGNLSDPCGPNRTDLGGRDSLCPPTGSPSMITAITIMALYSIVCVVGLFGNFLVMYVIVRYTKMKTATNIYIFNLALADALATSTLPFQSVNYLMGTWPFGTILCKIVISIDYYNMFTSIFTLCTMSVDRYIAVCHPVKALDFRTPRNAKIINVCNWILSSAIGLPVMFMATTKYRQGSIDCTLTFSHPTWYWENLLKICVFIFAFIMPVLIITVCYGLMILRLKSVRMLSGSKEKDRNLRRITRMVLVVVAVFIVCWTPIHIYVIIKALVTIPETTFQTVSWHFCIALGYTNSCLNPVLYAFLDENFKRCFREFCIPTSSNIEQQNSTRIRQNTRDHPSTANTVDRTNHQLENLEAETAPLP

| Structure (SMILES) | Ki (Mu-type opioid receptor [1]) [nM] | Activity [2] | EC50 (Mu-type opioid receptor [3]) [nM] | Emax (Mu-type opioid receptor [3]) [%] | Activity [4] | Ki [5] [nM] | Ki [6] [nM] | EC50 [7] [nM] | Emax [7] [%] | IC50 (Mu-type opioid receptor [8]) [nM] | Imax (Mu-type opioid receptor [8]) [%] | EC50 [9] [nM] | Emax [9] [%] | Activity (Mu-type opioid receptor [8]) | Imax (Mu-type opioid receptor [10]) [%] |
| --- | --- | --- | --- | --- | --- | --- | --- | --- | --- | --- | --- | --- | --- | --- | --- |
| C[C@H]1C2Cc3ccc(C(=O)NCCc4cccc(Br)c4)cc3[C@@]1(C)CCN2CC1CC1 | 0.35 | inactive | 5.6 | 24 | inactive | 3.5 | 0.063 | 14 | 85 | 230 | 85 | 4.6 | 110 | – | – |
| C[C@H]1C2Cc3ccc(C(=O)NCCc4ccc(Br)cc4)cc3[C@@]1(C)CCN2CC1CC1 | 2.4 | inactive | 16 | 73 | inactive | 2.5 | 0.38 | 20 | 120 | – | – | 20 | 110 | inactive | – |
| C[C@H]1C2Cc3ccc(C(=O)NCc4cccc5ccccc45)cc3[C@@]1(C)CCN2CC1CC1 | 2.5 | – | – | – | – | 52 | 18 | – | – | – | – | – | – | – | – |
| C[C@H]1C2Cc3ccc(C(=O)NCCc4ccc(-c5ccc(Cl)cc5)cc4)cc3[C@@]1(C)CCN2CC1CC1 | – | inactive | 2.5 | 31 | inactive | – | – | 2 | 45 | – | – | 6.4 | 96 | inactive | 71 |
| C[C@H]1C2Cc3ccc(C(=O)NCCCc4cccc5ccccc45)cc3[C@@]1(C)CCN2CC1CC1 | 2.4 | – | – | – | – | 18 | 1.9 | – | – | – | – | – | – | – | – |
| COc1ccc(-c2ccc(CCNC(=O)c3ccc4c(c3)[C@@]3(C)CCN(CC5CC5)C(C4)[C@@H]3C)cc2)cc1 | – | inactive | 11 | 27 | inactive | – | – | 0.68 | 70 | 24 | 82 | 1.1 | 98 | – | – |
| C[C@H]1C2Cc3ccc(C(=O)NCCc4ccc(-c5ccc(Cl)c(Cl)c5)cc4)cc3[C@@]1(C)CCN2CC1CC1 | 0.98 | – | – | – | – | 2.5 | 1.1 | – | – | – | – | – | – | – | – |
| C[C@H]1C2Cc3ccc(C(=O)NCCc4cccc(-c5ccccc5)c4)cc3[C@@]1(C)CCN2CC1CC1 | 0.95 | inactive | 6.8 | 41 | inactive | 5.9 | – | 18 | 43 | – | – | 12 | 95 | inactive | 72 |
| C[C@H]1C2Cc3ccc(C(=O)NCCc4cccc5ccccc45)cc3[C@@]1(C)CCN2CC1CC1 | 4.2 | – | – | – | – | 24 | 2.4 | – | – | – | – | – | – | – | – |
| C[C@H]1C2Cc3ccc(C(=O)NCCc4ccccc4-c4ccccc4)cc3[C@@]1(C)CCN2CC1CC1 | 6.7 | – | 12 | 36 | – | 21 | 2.4 | – | – | – | – | 42 | 97 | – | 73 |
| C[C@H]1C2Cc3ccc(C(=O)NCc4ccc5ccccc5c4)cc3[C@@]1(C)CCN2CC1CC1 | 1.3 | – | – | – | – | 31 | 19 | – | – | – | – | – | – | – | – |
| C[C@H]1[C@H]2Cc3ccc(O)cc3[C@@]1(C)CCN2CC1CC1 | – | – | – | – | – | 2 | 0.07 | – | – | – | – | – | – | – | – |
| C[C@H]1C2Cc3ccc(C(=O)NCCCc4ccc5ccccc5c4)cc3[C@@]1(C)CCN2CC1CC1 | 1.9 | – | 24 | 31 | inactive | 18 | 0.18 | – | – | 320 | 78 | 6.3 | 98 | – | – |
| C[C@H]1C2Cc3ccc(C(=O)NCCc4ccc5ccccc5c4)cc3[C@@]1(C)CCN2CC1CC1 | 0.18 | – | – | – | – | 0.9 | 0.2 | – | – | – | – | – | – | – | – |
| C[C@H]1C2Cc3ccc(C(=O)NCCc4ccccc4Br)cc3[C@@]1(C)CCN2CC1CC1 | 4 | – | – | – | – | 150 | 19 | – | – | – | – | – | – | – | – |
